US20160221991A1, “NOVEL TRIAZINE DERIVATIVE” (CARNA BIOSCIENCES, INC., priority 2013, published 2016)

System: anti-IgM antibody BCR stimulation-induced intracellular calcium influx in Ramos cells
Assay: Inhibition test on the change of Ramos intracellular calcium ion
Format: cell-based
Details: Fluo-8NW fluorescence, anti-IgM 2.0 μg/mL, FIG. 1
Procedure: The intracellular BTK inhibition by the compounds of the present invention was verified by measuring the effects of the compounds of the present invention on “anti-IgM antibody BCR stimulation-induced intracellular calcium influx”. One day before measurement, the Ramos cells were cultured as being suspended again at a cell density of 1.0×10^6 cells/mL in a fresh growth medium (growth medium as used in Test Example 2), and the cells were recovered next day by centrifugation and washed with RPMI-1640 medium supplemented with 5% penicillin-streptomycin (Nacalai Tesque, Inc.) (Medium 1). […] The Ramos intracellular calcium ion concentration was measured as a fluorescent intensity of the calcium indicator Fluo-8NW using a microplate reader (SynergyH1) (Ex/Em=490/525 nm) After measuring the baseline for 15 seconds, 50 μL of the anti-IgM antibody (Invitrogen, #H15100) diluted with Medium 2 to 10.4 μg/mL was added to each well described above (final concentration of 2.0 μg/mL) to effect BCR stimulation, and then the measurement was continued further for 150 seconds.

Cn1cc(Nc2nc(N)nc(-c3ccnc(-n4ccc5cc(C6CC6)cc(F)c5c4=O)c3CO)n2)cc1C#N [Example 3, 4-({4-Amino-6-[2-(6-cyclopropyl-8-fluoro-1-oxoisoquinolin-2(1H)-yl)-3-(hydroxymethyl)pyridin-4-yl]-1,3,5-triazin-2-yl}amino)-1-methyl-1H-pyrrole-2-carbonitrile]
inhibition of anti-IgM antibody BCR stimulation-induced intracellular calcium ion variation: in a concentration-dependent manner from a low concentration
